Source: US6107274A, “Piperazines as inhibitors of fructose-1,6-bisphosphatase (FBPase)” (Ontogen Corporation, priority 1999, dated 2000)
Like-named read-outs stand apart in the source and are kept apart here.

Target: T1, fructose-1,6-bisphosphatase (FBPase) (Homo sapiens, UniProt P09467)
T1 sequence (P09467 1-338): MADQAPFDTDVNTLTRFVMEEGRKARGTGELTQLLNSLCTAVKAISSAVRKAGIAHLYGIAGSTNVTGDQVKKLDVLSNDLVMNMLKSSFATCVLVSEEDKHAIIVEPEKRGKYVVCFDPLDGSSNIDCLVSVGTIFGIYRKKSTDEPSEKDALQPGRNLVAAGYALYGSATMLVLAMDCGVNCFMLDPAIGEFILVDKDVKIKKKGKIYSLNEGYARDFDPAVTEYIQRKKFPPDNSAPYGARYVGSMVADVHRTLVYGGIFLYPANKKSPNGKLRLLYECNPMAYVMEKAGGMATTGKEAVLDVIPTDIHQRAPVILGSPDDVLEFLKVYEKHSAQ
Experiment: FBPase inhibition assay (Taketa and Pogell): conversion of fructose-1,6-bisphosphate to fructose-6-phosphate, NADPH formation at 340 nm via coupled reactions
Assay type: biochemical
Method: The above compounds are assayed utilizing the procedure described by Taketa and Pogell (J. Biol. Chem. 240:651 (1965)), wherein the conversion of fructose-1,6-bisphosphate to fructose-6-phosphate is measured by monitoring the conversion of NADP to NADPH through two coupled reactions mediated by phosphoglucose isomerase and glucose-6-phosphate dehydrogenase. The increase in NADPH concentration during the course of the reactions was determined by measuring the increase in absorption at 340 nm. The controls used in the assay were adenosine monophosphate CAMP, 1(50 1.4±0.5 μM) and fructose 2.6-bisphosphate (1(50 2.9±0.9 μM). The results obtained of the above compounds are as follows (Table 2):
In Table 2, IC50 represents the concentration of inhibitor, which would result in 50% inhibition of FBPase activity. The Roman numbers designate the compounds' numbers as depicted in Formula A for which inhibition of FBPase activity has been measured.

[1] = concentration of inhibitor giving 50% inhibition of FBPase activity, read-out: IC50
[2] = controls used in the assay, read-out: 1(50 [IC50] of the assay controls

Row | SMILES | IC50 [1] [µM] | IC50 [2] [µM]
1 | N#Cc1ccc(C(C(=O)NCCc2ccc(O)cc2)N2C(=O)[C@@H]3Cc4ccccc4CN3C(=O)[C@@H]2CC2CCCCC2)cc1 (some centres unmarked) [Compound II, 2-(4-Cyano-phenyl)-2-(3-cyclohexylmethyl-1,4-dioxo-1,3,4,6,11,11a-hexahydro-pyrazino[1,2-b]isoquinolin-2-yl)-N-[2-(4-hydroxy-phenyl)-ethyl]-acetamide] | 2.1 | 
2 | N#Cc1ccc(C(C(=O)NCCc2cccc(O)c2)N2C(=O)[C@@H]3Cc4ccccc4CN3C(=O)[C@@H]2CC2CCCCC2)cc1 (some centres unmarked) [Compound III, 2-(4-Cyano-phenyl)-2-(3-cyclohexylmethyl-1,4-dioxo-1,3,4,6,11,11a-hexahydro-pyrazino[1,2-b]isoquinolin-2-yl)-N-[2-(3-hydroxy-phenyl)-ethyl]-acetamide] | 8 | 
3 | Cc1ccc(C(C(=O)NCCc2ccc(O)cc2)N2C(=O)[C@@H]3Cc4ccccc4CN3C(=O)[C@@H]2C)cc1 (some centres unmarked) [Compound XVII, N-[2-(4-Hydroxy-phenyl)-ethyl]-2-(3-methyl-1,4-dioxo-1,3,4,6,11,11a-hexahydro-pyrazino[1,2-b]isoquinolin-2-yl)-2-p-tolyl-acetamide] | 37 | 
4 | CCCC(C(=O)NCCc1ccc(O)cc1)N1C(=O)[C@@H]2Cc3ccccc3CN2C(=O)[C@@H]1Cc1ccccc1 (some centres unmarked) [Compound IX, 2-(3-Benzyl-1,4-dioxo-1,3,4,6,11,11a-hexahydro-pyrazino[1,2-b]isoquinolin-2-yl)-pentanoic acid [2-(4-hydroxy-phenyl)-ethyl]-amide] | 34 | 
5 | O=C(NCCc1ccc(O)cc1)C(c1ccc([N+](=O)[O-])cc1)N1C(=O)[C@H](Cc2ccccc2)NC(=O)[C@@H]1CC1CCCCC1 (some centres unmarked) [Compound VI, 2-(3-Benzyl-6-cyclohexylmethyl-2,5-dioxo-piperazin-1-yl)-N-[2-(4-hydroxy-phenyl)-ethyl]-2-(4-nitro-phenyl)-acetamide] | 24 | 
6 | O=C(O)CCCCCNC(=O)C(c1ccc(Oc2ccccc2)cc1)N1C(=O)[C@H](Cc2ccccc2)NC(=O)[C@@H]1CC1CCCCC1 (some centres unmarked) [Compound XVI, 6-[2-(3-Benzyl-6-cyclohexylmethyl-2,5-dioxo-piperazin-1-yl)-2-(4-phenoxy-phenyl)-acetylamino]-hexanoic acid] | 34 | 
7 | CC(C)C[C@H]1C(=O)N2Cc3ccccc3C[C@H]2C(=O)N1C(C(=O)NCCc1ccc(O)cc1)c1ccc([N+](=O)[O-])cc1 (some centres unmarked) [Compound V, N-[2-(4-Hydroxy-phenyl)-ethyl]-2-(3-isobutyl-1,4-dioxo-1,3,4,6,11,11a-hexahydro-pyrazino[1,2-b]isoquinolin-2-yl)-2-(4-nitro-phenyl)-acetamide] | 21 | 
8 | CC(C)C[C@H]1C(=O)N2Cc3ccccc3C[C@H]2C(=O)N1C(C(=O)NCCc1ccc(O)cc1)c1ccc(C#N)cc1 (some centres unmarked) [Compound VII, 2-(4-Cyano-phenyl)-N-[2-(4-hydroxy-phenyl)-ethyl]-2-(3-isobutyl-1,4-dioxo-1,3,4,6,11,11a-hexahydro-pyrazino[1,2-b]isoquinolin-2-yl)-acetamide] | 30 | 
9 | O=P(O)(O)OC[C@H]1O[C@@](CO)(OP(=O)(O)O)[C@@H](O)[C@@H]1O [fructose 2.6-bisphosphate, reference compound] |  | 2.9 ± 0.9
10 | O=C(O)c1ccc(CNC(=O)C(c2ccc3c(c2)-c2ccccc2C3)N2C(=O)C3Cc4ccccc4CN3C(=O)C2Cc2ccccc2)cc1 (centres unmarked) [Compound XV, 4-{[2-(3-Benzyl-1,4-dioxo-1,3,4,6,11,11a-hexahydro-pyrazino[1,2-b]isoquinolin-2-yl)-2-(9H-fluoren-3-yl)-acetylamino]-methyl}-benzoic acid] | 27 | 
11 | N#Cc1ccc(C(C(=O)NCCc2ccc(O)cc2)N2C(=O)[C@@H]3Cc4ccccc4CN3C(=O)[C@@H]2Cc2ccccc2)cc1 (some centres unmarked) [Compound IV, 2-(3-Benzyl-1,4-dioxo-1,3,4,6,11,11a-hexahydro-pyrazino[1,2-b]isoquinolin-2-yl)-2-(4-cyano-phenyl)-N-[2-(4-hydroxy-phenyl)-ethyl]-acetamide] | 15 | 
12 | O=C(O)c1ccc(CNC(=O)C(c2ccc(Oc3ccccc3)cc2)N2C(=O)[C@@H]3Cc4ccccc4CN3C(=O)[C@@H]2CC2CCCCC2)cc1 (some centres unmarked) [Compound XIV, 4-{[2-(3-Cyclohexylmethyl-1,4-dioxo-1,3,4,6,11,11a-hexahydro-pyrazino [1,2-b]isoquinolin-2-yl)-2-(4-phenoxy-phenyl)-acetylamino]-methyl}-benzoicacid] | 24 | 
13 | CCCCCC(C(=O)NCCc1ccc(O)cc1)N1C(=O)[C@@H]2Cc3ccccc3CN2C(=O)[C@@H]1Cc1ccc(O)cc1 (some centres unmarked) [Compound X, 2-[3-(4-Hydroxy-benzyl)-1,4-dioxo-1,3,4,6,11,11a-hexahydro-pyrazino[1,2-b]isoquinolin-2-yl]-heptanoic acid [2-(4-hydroxy-phenyl)-ethyl]-amide] | 40 | 
14 | O=C(O)CCCCCNC(=O)C(c1ccc(Oc2ccccc2)cc1)N1C(=O)C(Cc2ccc([N+](=O)[O-])cc2)NC(=O)C1Cc1ccccc1 (centres unmarked) [Compound XVIII, 6-[2-[2-Benzyl-5-(4-nitro-benzyl)-3,6-dioxo-piperazin-1-yl]-2-(4-phenoxy-phenyl)-acetylamino]-hexanoic acid] | 95 | 
15 | N#Cc1ccc(C(C(=O)NCCc2ccc(O)cc2)N2C(=O)C3Cc4ccc(O)cc4CN3C(=O)[C@@H]2CC2CCCCC2)cc1 (some centres unmarked) [Compound I, 2-(4-Cyano-phenyl)-2-(3-cyclohexylmethyl-8-hydroxy-1,4-dioxo-1,3,4,6,11,11a-hexahydro-pyrazino[1,2-b]isoquinolin-2-yl)-N-[2-(4-hydroxy-phenyl)-ethyl]-acetamide] | 0.37 | 
16 | N#Cc1ccc(C(C(=O)NCc2ccc(C(=O)N3CCOCC3)cc2)N2C(=O)[C@@H]3Cc4ccccc4CN3C(=O)[C@@H]2CC2CCCCC2)cc1 (some centres unmarked) [Compound XIII, 2-(4-Cyano-phenyl)-2-(3-cyclohexylmethyl-1,4-dioxo-1,3,4,6,11,11a-hexahydro-pyrazino[1,2-b]isoquinolin-2-yl)-N-[4-(morpholine-4-carbonyl)-benzyl]-acetamide] | 57 | 
17 | NC(=O)c1ccc(C(C(=O)NCCc2ccc(F)cc2)N2C(=O)[C@@H]3Cc4ccccc4CN3C(=O)[C@@H]2CC2CCCCC2)cc1 (some centres unmarked) [Compound VIII, 4-{(3-Cyclohexylmethyl-1,4-dioxo-1,3,4,6,11,11a-hexahydro-pyrazino[1,2-b]isoquinolin-2-yl)-[2-(4-fluoro-phenyl)-ethylcarbamoyl]-methyl}-benzamide] | 32 | 
18 | CCCC(C(=O)NCCc1ccc(O)cc1)N1C(=O)[C@@H]2Cc3ccccc3CN2C(=O)[C@@H]1Cc1ccc(O)cc1 (some centres unmarked) [Compound XI, 2-[3-(4-Hydroxy-benzyl)-1,4-dioxo-1,3,4,6,11,11a-hexahydro-pyrazino[1,2-b]isoquinolin-2-yl]-pentanoic acid [2-(4-hydroxy-phenyl)-ethyl]-amide] | 45 | 
19 | Nc1ncnc2c1ncn2[C@@H]1O[C@H](COP(=O)(O)O)[C@@H](O)[C@H]1O [adenosine monophosphate, reference compound] |  | 1.4 ± 0.5
20 | CC(C)CC(C(=O)NCCc1ccc(O)cc1)N1C(=O)[C@@H]2Cc3ccccc3CN2C(=O)[C@@H]1Cc1ccc(O)cc1 (some centres unmarked) [Compound XII, 2-[3-(4-Hydroxy-benzyl)-1,4-dioxo-1,3,4,6,11,11a-hexahydro-pyrazino[1,2-b]isoquinolin-2-yl]-4-methyl-pentanoic acid [2-(4-hydroxy-phenyl)-ethyl]-amide] | 54 | 
